Data reported in patent US8518968B2, “Hydrazone and diacyl hydrazine compounds and methods of use” (The United States of America, as represented by the …, priority 2009, dated 2013).
Where two headings read alike, the source gives them in different places.

Legend:
[1] = test system: ATF3, ATF4, NOXA; test: Immunoblot of ER stress markers, NOXA, ubiquitin and histone H2A in JEKO-1 cells; type: cell-based; settings: for expression level of ATF3, ATF4 and NOXA: 8 hrs
[2] = test system: p97 mutants (p97ΔN, p97ΔD2); test: Avidin bead pull-down of p97 mutants with immobilized B-NFC; type: binding; settings: p97ΔN or p97ΔD2, avidin beads
[3] = test system: 293T cells; test: Whole genome array gene expression in 293T cells; type: cell-based, human; settings: 10 μM, 10 h
Description: To further confirm that both EerI and 5-NA can influence p97 function in cells, the gene expression pattern of EerI-treated cells is compared to that of 5-NA-treated cells using whole genome array hybridization. […] These studies are performed in 293T cells because they are highly transfectable, making them well suited for genetic manipulation by siRNA. Cells were treated with EerI, CBU-028, or 5-NA each at 10 μM in duplicates for 10 h. Total RNA was extracted using TRIzol reagent (Invitrogen, Carlsbad, Calif.), and subsequently purified using an RNeasy MinElute Cleanup kit (QIAGEN, Valencia, Calif.). For array hybridization, RNA samples were processed and analyzed by The National Institute of Diabetes and Digestive and Kidney Diseases (NIDDK) Microarray Core Facility. The Affymetrix gene expression analysis array for the human HG-U133A—2—0 was used (Affymetrix). The microarray signals were analyzed using the Affymetrix RMA algorithm. […] To determine specific pathways, gene pathway analysis were conducted using software from Genego, Inc., using the statistical significant ANOVA gene list (p<0.05, fold change >1.5) represented on the chip. Microarray data is MIAME compliant and that the raw data has been deposited in the Gene Expression Omnibus (GEO) database (accession no. GSE23849).

[4] = test system: JEKO-1 cells
[5] = target: T1, recombinant wild type p97 (Homo sapiens, UniProt P55072); test: Surface plasmon resonance binding to recombinant p97; settings: SPR, 25° C., recombinant p97 purified from E. coli; read-out: estimated Kd
T1 construct: made in house; host or cells: E. coli
Description: The strength of EerI binding to recombinant p97 purified from E. coli was tested using surface plasma resonance (SPR). Surface plasmon resonance interaction experiments were carried out at 25° C. on a Biacore T100 system (GE healthcare). […] Briefly, the carboxymethyl group of dextran was activated with N-ethyl-N′-(3-dimethylaminopropyl)carbodiimide (EDC) and N-hydroxysuccinimide (NHS). Then, p97 in a 10 mM sodium acetate (pH 4.5) buffer was injected at a flow rate of 10 μl/min with 2 min contact time and immobilized at a level of ˜8,000 RU. Any remaining reactive sites in the flow cell were blocked by ethanolamine. The drug association and dissociation were monitored at a flow rate of […] with the analyte concentration ranging from 3.125 μM to 50 μM in a buffer containing 10 mM HEPES (pH 7.4), 150 mM NaCl, 0.005% v/v Surfactant P20. Regeneration of the chip was achieved by extended washing with the analyte buffer. SPR signal was normalized using a reference flow cell containing no p97. […] The Rmax was then calculated, and the binding relative to the Rmax from three independent experiments was averaged. […]
The affinity of CBU-028, EERI, and compound 5138380 to purified p97 is measured by surface plasmon resonance (SPR). […] Association and dissociation of the compounds are monitored at a flow rate of 20 μL/min at concentrations ranging from 1.6 μM to 100 μM. […]

[6] = target: p97 ATPase (Homo sapiens, UniProt P55072); test: In vitro ATPase activity of p97; type: biochemical; settings: data not shown
Description: To understand how EerI binding might affect p97 function, in vitro ATPase activity of p97 in the presence of EerI was measured. No effect of EerI on the p97 ATPase activity was found (data not shown).

[7] = target: T2, membrane associated p97 (Homo sapiens, UniProt P55072); test: Membrane/cytosol fractionation and p97 immunoblot in 293T cells; type: cell-based; settings: 10 μM, 6 hr, membrane and cytosol fractions
T2 construct: endogenous in cells; host or cells: 293T cells
Description: Cells were fractionated into membrane and cytosol fractions. Proteins extracted from these fractions were analyzed by immunoblotting with antibodies to p97, E1, and Sec61β, and ER-resident protein as shown in FIG. 2 e.

[8] = target: T3, p97 (Homo sapiens, UniProt P55072); test: Limited trypsin digestion of purified p97; settings: purified p97 pre-incubated with compound
Description: Sensitivity of p97 to limited trypsin digestion in the presence and absence of EerI was tested to determine whether binding of EerI to p97 could alter p97 conformation. The purified p97 protein (1.5 μg) was incubated at in a buffer containing 200 ng trypsin in 50 μl volume. Samples were taken out at different time points and mixed with the Laemmli buffer before SDS-PAGE and silver staining analyses.

[9] = test system: TCRα-YFP; test: Stabilization of ERAD substrate TCRα-YFP in 293T cells; type: cell-based; settings: 293T cells stably expressing TCRα-YFP, 10 μM (10 mM in method), 10 h
Description: 293T cells stably expressing TCRα-YFP are treated with the indicated compounds ([…]) or as a control with DMSO for 10 h. Cells are lysed in RIPA buffer (50 mM Tris, pH 7.5, 1% NP40, 0.1% SDS, 0.5% sodium deoxycholate, 150 mM sodium chloride, 2 mM EDTA and a protease inhibitor cocktail). TCRα-YFP is immunoprecipitated from the cell extract using an anti-green fluorescent protein (GFP) antibody. The precipitated material is analyzed by SDS-PAGE and immunoblotting with antibodies against uUb and GFP. The whole cell extracts are also analyzed by SDS-PAGE and immunoblotting with antibodies against p. 97.

[10] = test system: GFPμ; test: Stabilization of soluble p97 substrate GFPμ in 293T cells; type: cell-based; settings: 10 μM
Description: The experiments are performed as described above for TCRα-YFP, except that 293 T cells stably expressing GFP are used.

[11] = test system: JEKO-1 cells stably transfected with shRNAs to luciferase or NOXA; test: Effect of NOXA shRNA on cytotoxicity in JEKO-1 cells (MTT); type: cell-based; settings: JEKO-1 shLuc vs shNoxa, 24 hours
Description: The effect of NOXA on cytotoxicity of CBU-028, EERI, or bortezomib is determined. FIG. 4 presents graphs comparing CBU-028, EERI, and bortezomib with respect to percent cell viability as a function of concentration, measured using JEKO-1 cells stably transfected with shRNAs to luciferase (shLuc, control, ▪) or NOXA (shNoxa, ◯, sequence: [NT]) after treatment with the compound for 24 hrs, with viability determined with MTT as described above and normalized to the untreated control.

[12] = test system: primary chronic lymphocytic leukemia (CLL) cells or normal peripheral blood mononuclear cells (PBMC); test: Cytotoxic activity against primary cells (MTT); type: cell-based; settings: 5×10e6 cells/ml, 48 hrs
Description: The cytotoxic activity of CBU-028 or EERI against primary cells is determined as a function of concentration. Cell viability of primary chronic lymphocytic leukemia (CLL) cells or normal peripheral blood mononuclear cells (PBMC) at a concentration of 5×10e6 cells/ml is determined after treatment with CBU-028 or EERI for 48 hrs in triplicates. Viability is determined using the MTT assay, as described previously, with data normalized to the untreated control.

[13] = test system: CLL cells; test: Synergy of CBU-028 with bortezomib against CLL cells (MTT); type: cell-based; settings: fixed molar relation 1:2000 (BZM:CBU-028), 48 hours
Description: FIG. 6. […] To test for synergy between BZM and CBU-028, CLL cells were incubated in-vitro to increasing concentrations of each compound individually as well as to a combination of both drugs. The combination was tested at a fixed molar relation of 1:2000, e.g. 4 nM BZM was combined with 8 uM CBU-028. 5×10^6 cells/mL were incubated for 48 hours and cell viability was measured with MTT. Synergy is found where the effect of the combination of the two compounds exceeds the additive effect of each compound separately. The left graph shown the result of a representative experiment (CLL—4235) across all concentrations tested. The graph on the right summarizes the data for 7 individual CLL patients.

[14] = test system: JEKO-1 cells; test: cells; settings: Homo sapiens, JeKo-1, 48 h, JEKO-1 cells, incubated 2 days, MTT, four parameter logistic fit
[15] = target: T3, p97; test: Avidin bead pull-down of p97 with immobilized B-NFC; type: binding; settings: monomeric avidin beads, biotin beads as negative control
[16] = test system: heat shock protein Hsp70; test: Avidin bead pull-down of Hsp70 with immobilized B-NFC; type: binding; settings: avidin beads
[17] = target: N-ethylmaleimide-sensitive factor (NSF) (Homo sapiens, UniProt P46459); test: Avidin bead pull-down of NSF with immobilized B-NFC; type: binding; settings: avidin beads
Sequence of N-ethylmaleimide-sensitive factor (NSF) (P46459 whole entry, species assumed): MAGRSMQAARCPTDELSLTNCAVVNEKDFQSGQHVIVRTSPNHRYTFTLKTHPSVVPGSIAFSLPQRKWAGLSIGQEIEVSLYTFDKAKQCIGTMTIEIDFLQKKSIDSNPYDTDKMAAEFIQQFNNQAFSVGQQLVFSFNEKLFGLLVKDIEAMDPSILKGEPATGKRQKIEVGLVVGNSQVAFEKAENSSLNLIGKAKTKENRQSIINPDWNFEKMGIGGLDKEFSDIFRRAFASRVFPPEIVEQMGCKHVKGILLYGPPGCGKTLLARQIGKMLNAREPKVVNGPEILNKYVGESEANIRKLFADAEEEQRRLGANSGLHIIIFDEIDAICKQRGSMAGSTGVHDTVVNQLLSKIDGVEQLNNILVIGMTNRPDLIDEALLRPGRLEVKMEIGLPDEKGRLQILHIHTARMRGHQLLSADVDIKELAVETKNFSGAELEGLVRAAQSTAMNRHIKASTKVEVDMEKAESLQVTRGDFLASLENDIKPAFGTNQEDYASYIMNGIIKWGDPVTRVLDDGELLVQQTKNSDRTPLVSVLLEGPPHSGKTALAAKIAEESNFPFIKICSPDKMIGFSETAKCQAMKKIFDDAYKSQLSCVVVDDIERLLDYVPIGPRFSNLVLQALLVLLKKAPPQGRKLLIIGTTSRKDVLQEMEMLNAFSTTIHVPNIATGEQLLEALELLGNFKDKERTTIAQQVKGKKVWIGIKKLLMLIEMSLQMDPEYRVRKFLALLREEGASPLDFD

T3 sequence (P55072 whole entry): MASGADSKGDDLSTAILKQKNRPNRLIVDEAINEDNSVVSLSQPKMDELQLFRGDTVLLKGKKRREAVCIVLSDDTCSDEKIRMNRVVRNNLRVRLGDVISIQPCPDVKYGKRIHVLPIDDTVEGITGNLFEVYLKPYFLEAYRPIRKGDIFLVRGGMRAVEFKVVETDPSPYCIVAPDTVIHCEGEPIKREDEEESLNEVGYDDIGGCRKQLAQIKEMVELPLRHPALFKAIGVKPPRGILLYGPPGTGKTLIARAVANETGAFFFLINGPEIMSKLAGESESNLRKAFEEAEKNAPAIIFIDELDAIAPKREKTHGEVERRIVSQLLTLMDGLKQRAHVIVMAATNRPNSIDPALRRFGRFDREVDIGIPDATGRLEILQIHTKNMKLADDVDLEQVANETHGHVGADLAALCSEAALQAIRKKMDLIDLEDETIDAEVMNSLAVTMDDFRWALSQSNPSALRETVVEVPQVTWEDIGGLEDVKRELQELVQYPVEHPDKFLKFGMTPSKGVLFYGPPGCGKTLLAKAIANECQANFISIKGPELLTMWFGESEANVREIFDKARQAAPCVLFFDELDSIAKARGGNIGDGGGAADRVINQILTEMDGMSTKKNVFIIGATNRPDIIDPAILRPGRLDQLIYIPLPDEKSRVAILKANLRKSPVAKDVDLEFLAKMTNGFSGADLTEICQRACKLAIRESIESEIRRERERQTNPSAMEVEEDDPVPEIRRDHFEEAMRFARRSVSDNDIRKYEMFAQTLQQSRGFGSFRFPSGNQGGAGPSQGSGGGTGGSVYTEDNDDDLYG
Sequence of p97 ATPase (P55072 whole entry): as above
T1 sequence (P55072 whole entry): as above
T2 sequence (P55072 2-806 limits assumed): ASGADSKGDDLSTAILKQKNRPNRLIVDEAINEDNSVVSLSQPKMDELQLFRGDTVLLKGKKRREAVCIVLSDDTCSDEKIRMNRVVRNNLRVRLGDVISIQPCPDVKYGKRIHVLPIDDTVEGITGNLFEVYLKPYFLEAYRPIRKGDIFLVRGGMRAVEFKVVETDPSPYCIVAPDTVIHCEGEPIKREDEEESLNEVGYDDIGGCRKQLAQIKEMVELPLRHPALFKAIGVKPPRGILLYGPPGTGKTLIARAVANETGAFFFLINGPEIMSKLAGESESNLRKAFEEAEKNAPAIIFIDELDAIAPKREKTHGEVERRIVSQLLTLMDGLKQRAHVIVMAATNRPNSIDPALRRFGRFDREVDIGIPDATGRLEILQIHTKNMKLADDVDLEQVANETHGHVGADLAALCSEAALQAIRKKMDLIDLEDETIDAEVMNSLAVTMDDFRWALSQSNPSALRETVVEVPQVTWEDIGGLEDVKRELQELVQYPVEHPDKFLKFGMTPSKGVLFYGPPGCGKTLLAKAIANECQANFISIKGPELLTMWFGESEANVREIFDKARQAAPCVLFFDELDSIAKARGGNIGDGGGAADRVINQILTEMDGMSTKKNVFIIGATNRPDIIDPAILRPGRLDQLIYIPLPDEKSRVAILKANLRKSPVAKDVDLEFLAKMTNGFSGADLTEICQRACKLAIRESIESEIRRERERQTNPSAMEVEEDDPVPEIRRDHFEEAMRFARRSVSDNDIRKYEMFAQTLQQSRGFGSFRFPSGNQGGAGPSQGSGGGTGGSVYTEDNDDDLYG
Sequence of p97 mutants (p97ΔN, p97ΔD2) (P55072 209-458 limits assumed, stated change not applied): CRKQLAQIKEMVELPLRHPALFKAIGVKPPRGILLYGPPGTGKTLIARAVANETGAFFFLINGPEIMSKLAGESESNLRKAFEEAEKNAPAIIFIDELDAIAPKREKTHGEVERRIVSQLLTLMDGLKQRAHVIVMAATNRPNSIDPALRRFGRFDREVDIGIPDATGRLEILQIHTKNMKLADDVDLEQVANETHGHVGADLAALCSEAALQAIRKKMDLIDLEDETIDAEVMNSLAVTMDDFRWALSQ

5-nitrofuryl-acrolein
expression level of ATF3, ATF4 and NOXA ([1]; 2.5 μM): comparable to that present after treatment with EERI | binding of p97 mutants to immobilized compound [2]: also bound | number of genes up- or down-regulated by at least 2-fold by both EerI and 5-NA [3]: 29 genes | number of genes up- or down-regulated by at least 2-fold only by this compound [3]: 306 genes | cell viability / cytotoxic activity (in words) [4]: cytotoxic activity at a concentration lower than that shown by EERI

CC1(C)C(N(O)C(=O)Nc2ccc(C(F)(F)F)cc2)N(c2ccc(Cl)cc2)C(=O)N1CC(=O)N/N=C/C=C/c1ccc([N+](=O)[O-])o1 (stereo not shown) [CBU-003]
Kd [5]: 5 to 10 µM | effect on p97 ATPase activity [6]: No effect | expression level of ATF3, ATF4 and NOXA ([1]; 10 μM): comparable to that present after treatment with EERI | location of slow migrating (oligomerized) p97 species induced by compound [7]: primarily in the membrane fraction, not in the cytosol fraction | sensitivity of p97 to limited trypsin digestion [8]: caused a delay in the proteolysis of two p97 fragments by trypsin | number of genes up- or down-regulated by at least 2-fold by both EerI and 5-NA [3]: 29 genes | number of genes up- or down-regulated by at least 2-fold only by this compound [3]: 25 genes | stabilization of ERAD substrate TCRα-YFP [9]: stabilize the ERAD substrate TCRα-YFP in polyubiquitinated forms | stabilization of soluble p97 substrate GFPμ [10]: stabilize the soluble p97 substrate GFPμ in polyubiquitinated forms | requirement of NOXA for cytotoxicity [11]: Noxa is equally required | sensitivity of PBMC compared with CLL cells [12]: PBMC are less sensitive | IC50 ([4]; JEKO-1 cells, incubated 2 days, MTT, four parameter logistic fit): 3.5 µM

O=C(N/N=C/C=C/c1ccc([N+](=O)[O-])o1)c1cc2ccccc2cc1O [CBU-028, (E)-3-hydroxy-N′-((E)-3-(5-nitrofuran-2-yl)allylidene)-2-naphthohydrazide]
NOXA protein level ([1]; 10 μM, time course): upregulates NOXA protein level | expression of ER stress markers ATF3 and ATF4 ([1]; 10 μM, time course): induces expression of the ER stress markers ATF3 and ATF4 | polyubiquitinated proteins ([1]; 10 μM, time course): causes accumulation of polyubiquitinated proteins | ubiquitinated histone H2A ([1]; 10 μM, time course): downregulates ubiquitinated histone H2A | stabilization of ERAD substrate TCRα-YFP [9]: stabilize the ERAD substrate TCRα-YFP in polyubiquitinated forms | stabilization of soluble p97 substrate GFPμ [10]: stabilize the soluble p97 substrate GFPμ in polyubiquitinated forms | requirement of NOXA for cytotoxicity [11]: Noxa is equally required | sensitivity of PBMC compared with CLL cells [12]: PBMC are less sensitive | synergy with bortezomib [13]: Synergizes with Bortezomib | IC50 [14]: 3 µM

O=C(CCCC[C@@H]1SCC2NC(=O)NC21)N/N=C/C=C/c1ccc([N+](=O)[O-])o1 (stereo partly drawn) [CBU-032, (E)-N′-((E)-3-(5-nitrofuran-2-yl)allylidene)-5-((4S)-2-oxohexahydro-1H-thieno[3,4-d]imidazol-4-yl)pentanehydrazide]
precipitation of p97 by immobilized compound [15]: consistently precipitated more p97, than biotin | binding of Hsp70 to immobilized compound [16]: neither the heat shock protein Hsp70, nor the homologous AAA ATPase, N-ethylmaleimide-sensitive factor (NSF), showed significant binding | binding of NSF to immobilized compound [17]: neither the heat shock protein Hsp70, nor the homologous AAA ATPase, N-ethylmaleimide-sensitive factor (NSF), showed significant binding | IC50 [14]: 25 µM
